Measurements: ChEMBL document CHEMBL4616592, “Design, synthesis and bio-evaluation of C-1 alkylated tetrahydro-β-carboline derivatives as novel antifungal lead compounds” (Bioorg Med Chem Lett, 2020)
Converted amounts (≈) assume the structure as drawn.

How the values were obtained:
Format in all cases: functional
[1] = tested on: Kluyveromyces marxianus; assay: Antifungal activity against Candida kefyr assessed as fungal growth inhibition
[2] = tested on: Candida albicans; assay: Antifungal activity against Candida albicans assessed as fungal growth inhibition
[3] = tested on: Cryptococcus neoformans; assay: Antifungal activity against Cryptococcus neoformans assessed as fungal growth inhibition
[4] = tested on: Candida parapsilosis; assay: Antifungal activity against Candida parapsilosis assessed as fungal growth inhibition; conditions: Lodderomyces parapsilosis
[5] = tested on: Candida tropicalis; assay: Antifungal activity against Candida tropicalis assessed as fungal growth inhibition
[6] = tested on: Pichia kudriavzevii; assay: Antifungal activity against Candida krusei assessed as fungal growth inhibition
[7] = tested on: Nakaseomyces glabratus; assay: Antifungal activity against Candida glabrata assessed as fungal growth inhibition
[8] = tested on: Nakaseomyces glabratus; assay: Fungicidal activity against Candida glabrata assessed as time taken to kill fungal colony at MIC by time kill kinetic assay

SMILES	MIC [1] [µM]	MIC [2] [µM]	MIC [3] [µM]	MIC [4] [µM]	MIC [5] [µM]	MIC [6] [µM]	MIC [7] [µM]	Time [8] [h]
COC(=O)[C@@H]1Cc2c([nH]c3ccccc23)[C@@H](c2ccccc2)N1	125 (≈ 38.3 µg/mL)	> 250	> 250	> 250	> 250	> 250	> 250	–
CCCCCCCCCCC[C@@H]1N[C@H](C(=O)OC)Cc2c1[nH]c1ccccc21	> 250	> 250	> 250	> 250	> 250	> 250	> 250	–
COC(=O)[C@@H]1Cc2c([nH]c3ccccc23)[C@H](c2ccccc2)N1	> 250	> 250	> 250	> 250	> 250	> 250	> 250	–
CCCC[C@H]1N[C@H](C(=O)OC)Cc2c1[nH]c1ccccc21	156 (≈ 44.7 µg/mL)	> 250	> 250	156 (≈ 44.7 µg/mL)	> 250	156 (≈ 44.7 µg/mL)	> 250	–
COC(=O)[C@@H]1Cc2c([nH]c3ccccc23)[C@H](c2cccnc2)N1	> 250	> 250	> 250	> 250	> 250	> 250	> 250	–
COC(=O)[C@@H]1Cc2c([nH]c3ccccc23)[C@H](c2ccc3c(c2)OCO3)N1	> 250	> 250	> 250	> 250	> 250	> 250	> 250	–
C[C@@H]1[C@H](O)[C@@H](C)/C=C/C=C/C=C/C=C/C=C/C=C/C=C/[C@H](O[C@@H]2O[C@H](C)[C@@H](O)[C@H](N)[C@@H]2O)C[C@@H]2O[C@](O)(C[C@@H](O)C[C@@H](O)[C@H](O)CC[C@@H](O)C[C@@H](O)CC(=O)O[C@H]1C)C[C@H](O)[C@H]2C(=O)O [AMPHOTERICIN B]	12.5 (≈ 11.6 µg/mL)	1.56 (≈ 1.44 µg/mL)	0.78 (≈ 0.721 µg/mL)	1.56 (≈ 1.44 µg/mL)	0.78 (≈ 0.721 µg/mL)	0.78 (≈ 0.721 µg/mL)	0.39 to 0.78 (≈ 0.36 to 0.721 µg/mL)	4
COC(=O)[C@@H]1Cc2c([nH]c3ccccc23)[C@H](c2cccs2)N1	> 250	> 250	> 250	> 250	> 250	> 250	> 250	–
OC(Cn1cncn1)(Cn1cncn1)c1ccc(F)cc1F [FLUCONAZOLE]	–	–	–	–	–	–	13.1 (≈ 4 µg/mL)	–
CCCCCC[C@H]1N[C@H](C(=O)OC)Cc2c1[nH]c1ccccc21	> 250	> 250	> 250	> 250	> 250	> 250	> 250	–
